{
  "source": "patent US20230016526A1",
  "about": "“SYSTEM AND METHODS FOR MANIPULATION OF THE ORAL MICROBIOME IN MAMMALS” (ANIMAL MICROBIOME ANALYTICS, INC. (D/B/A ANIMALBIOME), priority 2019, published 2023)",
  "test_system": "cat's oral microbiome",
  "assay": "Microbial diversity metrics in sequential oral samples of a cat after a dental procedure with cefovecin sodium",
  "type": "in vivo",
  "conditions": "tooth extraction and cefovecin sodium; for PD Evenness: Before 0.53; for HA Evenness: Before 0.62; for PD/HA Evenness: Before 0.85; for PD/HA Diversity: Before 1.21; for PD/HA Richness: Before 1.32; for HA Diversity: Before 1.87; for PD Diversity: Before 2.26; for Pathobiont Richness: Before 3; for HA Richness: Before 31; for PD Richness: Before 41",
  "experimental": "Alpha diversity metrics (Amplified Sequence Variant Richness, Shannon Diversity, and Pielou's Evenness) were calculated for a subset of periodontal disease-associated bacteria (PD) and a subset of health-associated bacteria (HA). The range for PD richness in healthy cats and dogs is 0-39. The range for health richness in healthy cats and dogs is 20-50. For comparison, oral health of each individual was also assessed by examination by a veterinary technician and or a veterinarian and observations of oral health and breath were record as shown in the table below.\nMicrobial diversity metrics were assessed for three sequential samples collected from a cat with advanced periodontal disease with tooth resorption prior to a dental cleaning to remove calculus, tooth extraction, and treatment with cefovecin sodium, a broad-spectrum antibiotic. Microbial diversity measures for samples collected from a cat with advanced periodontal disease with tooth resorption prior to a dental procedure that included cleaning to remove calculus, tooth extraction, and antibiotic treatment. Samples were collected by swabbing the area between the gingival sulcus and the gingival margin and were sequenced using the Illumina MiniSeq. […] At five weeks after, PD richness had increased but PD diversity had decreased, likely driven by a reduction in evenness. At five weeks after, for HA microbes, there were increases in richness, diversity, and evenness, and the PD/HA ratios for richness and diversity had decreased. Thus, this cat's oral microbiome began to show signs of recovery in a sample collected five weeks later.",
  "key": {"[1]": {"conditions": "Five weeks after dental cleaning"}, "[2]": {"conditions": "Two weeks after dental cleaning"}},
  "data": [
    {"smiles": "CO/N=C(/C(=O)N[C@@H]1C(=O)N2C(C(=O)[O-])=C([C@@H]3CCCO3)CS[C@H]12)c1csc(N)n1.[Na+]", "note": "[cefovecin sodium]", "values": [
      {"measurement": "PD Evenness", "setting": "[1]", "result": 0.62},
      {"measurement": "HA Evenness", "setting": "[1]", "result": 0.58},
      {"measurement": "PD/HA Evenness", "setting": "[1]", "result": 1.07},
      {"measurement": "PD/HA Diversity", "setting": "[1]", "result": 1.15},
      {"measurement": "PD/HA Richness", "setting": "[1]", "result": 0.92},
      {"measurement": "HA Diversity", "setting": "[1]", "result": 1.62},
      {"measurement": "PD Diversity", "setting": "[1]", "result": 1.86},
      {"measurement": "Pathobiont Richness", "setting": "[1]", "result": 2},
      {"measurement": "HA Richness", "setting": "[1]", "result": 25},
      {"measurement": "PD Richness", "setting": "[1]", "result": 23},
      {"measurement": "PD Evenness", "setting": "[2]", "result": 0.74},
      {"measurement": "HA Evenness", "setting": "[2]", "result": 0.43},
      {"measurement": "PD/HA Evenness", "setting": "[2]", "result": 1.72},
      {"measurement": "PD/HA Diversity", "setting": "[2]", "result": 1.95},
      {"measurement": "PD/HA Richness", "setting": "[2]", "result": 1.46},
      {"measurement": "HA Diversity", "setting": "[2]", "result": 1.11},
      {"measurement": "PD Diversity", "setting": "[2]", "result": 2.17},
      {"measurement": "Pathobiont Richness", "setting": "[2]", "result": 2},
      {"measurement": "HA Richness", "setting": "[2]", "result": 13},
      {"measurement": "PD Richness", "setting": "[2]", "result": 19}
    ]}
  ]
}
